The nature of the series: Solid-state stability of crystalline forms (XRPD). The class given is physicochemical. The following applies: for stability in air: XRPD. From the text:
Samples for X-ray powder diffraction (XRPD) data collection were gently ground by marble mortar and loaded into a crystallographic capillary (from Hampton Research, Quartz or Glass Type 10, 0.4 or 0.7 mm diameter). Diffraction patterns were collected at room temperature using CuKα radiation (λ=1.5418 Å) from a Rigaku rotating anode RU3HR, Osmic blue confocal optics, ¼ c goniometer and a Rigaku HTC image plate detector. 2D Images were collected while spinning φ axis with a detector to crystal distance of 250 mm. Data collection was controlled by CrystalClear software and 2D images were converted to 1D plot (2θ vs. Intensity) by Datasqueeze (intensity averaged over the azimuthal angle 0≦χ≦360° for […] 3-30° in 0.02° steps). In house program AstexXRPD was used for manipulation and visualisation of 1D XRPD patterns.

This is an account of results in US9428439B2, “Hydrobenzamide derivatives as inhibitors of Hsp90” (priority 2006, dated 2016).

“Also recorded” adds a separate entry of the source.

Regarding `CC(C)c1cc(C(=O)N2Cc3ccc(CN4CCN(C)CC4)cc3C2)c(O)cc1O` [Form FB1, (2,4-dihydroxy-5-isopropyl-phenyl)-[5-(4-methyl-piperazin-1-ylmethyl)-1,3-dihydro-isoindol-2-yl]-methanone], the stability in air result (listed as FB1) is “unstable in air and converts to form FB3; also recorded: converted completely to crystal form FB3”.
As for `CC(C)c1cc(C(=O)N2Cc3ccc(CN4CCN(C)CC4)cc3C2)c(O)cc1O` [Form FB2, (2,4-dihydroxy-5-isopropyl-phenyl)-[5-(4-methyl-piperazin-1-ylmethyl)-1,3-dihydro-isoindol-2-yl]-methanone], the stability in air entry (listed as FB2) is “unstable in air and converts to form FB3; also recorded: changed to crystal form FB3”.
For the compound `CC(C)c1cc(C(=O)N2Cc3ccc(CN4CCN(C)CC4)cc3C2)c(O)cc1O.C[C@H](O)C(=O)O` [Form FL1, (2,4-dihydroxy-5-isopropyl-phenyl)-[5-(4-methyl-piperazin-1-ylmethyl)-1,3-dihydro-isoindol-2-yl]-methanone L-lactate salt], the “stability at 40° C. and 75% RH” value was “stable in air and at 40 °C and 75% RH for at least one month”. Moreover, where the note is “listed as FL”, the stability in air entry is on record as “stable in air”. In addition, the “stability of the crystalline form (stable / unstable form)” value (listed as FL1) is listed as “stable forms”.
For `CC(C)c1cc(C(=O)N2Cc3ccc(CN4CCN(C)CC4)cc3C2)c(O)cc1O.Cl` [Form FH2, (2,4-dihydroxy-5-isopropyl-phenyl)-[5-(4-methyl-piperazin-1-ylmethyl)-1,3-dihydro-isoindol-2-yl]-methanone hydrochloride salt], the stability in air entry (listed as FH2, hydrochloride salt) is reported as “unstable in air; also recorded: transforms on air into form FH3; also recorded: conversion to form FH3”.
With `CC(C)c1cc(C(=O)N2Cc3ccc(CN4CCN(C)CC4)cc3C2)c(O)cc1O` [Form FB6, (2,4-dihydroxy-5-isopropyl-phenyl)-[5-(4-methyl-piperazin-1-ylmethyl)-1,3-dihydro-isoindol-2-yl]-methanone], the stability in air result (listed as FB6) is reported as “stable in air; also recorded: stable on air”.
For `CC(C)c1cc(C(=O)N2Cc3ccc(CN4CCN(C)CC4)cc3C2)c(O)cc1O.Cl` [Form FH4, (2,4-dihydroxy-5-isopropyl-phenyl)-[5-(4-methyl-piperazin-1-ylmethyl)-1,3-dihydro-isoindol-2-yl]-methanone hydrochloride salt], the stability in air result (listed as FH4, hydrochloride salt) was “unstable and disintegrates in air”.
Consider `CC(C)c1cc(C(=O)N2Cc3ccc(CN4CCN(C)CC4)cc3C2)c(O)cc1O` [Form FB3, (2,4-dihydroxy-5-isopropyl-phenyl)-[5-(4-methyl-piperazin-1-ylmethyl)-1,3-dihydro-isoindol-2-yl]-methanone], for which the “stability at 40° C. and 75% RH” value is “stable in air at 40 °C and in 75% relative humidity for at least one month; also recorded: stable in air and at 40 °C and 75% RH for at least one month”. Further, the stability in air entry (listed as FB3) is recorded as “stable in air”.
For `CC(C)c1cc(C(=O)N2Cc3ccc(CN4CCN(C)CC4)cc3C2)c(O)cc1O.Cl` [Form FH3, (2,4-dihydroxy-5-isopropyl-phenyl)-[5-(4-methyl-piperazin-1-ylmethyl)-1,3-dihydro-isoindol-2-yl]-methanone hydrochloride salt], the “stability at 40° C. and 75% RH” value is “stable in air and at 40 °C and 75% RH for at least one month”. Also, the stability in air result (listed as FH3, hydrochloride salt) is “stable in air”.
As for `CC(C)c1cc(C(=O)N2Cc3ccc(CN4CCN(C)CC4)cc3C2)c(O)cc1O.O=S(=O)(O)O` [Form FS4, (2,4-dihydroxy-5-isopropyl-phenyl)-[5-(4-methyl-piperazin-1-ylmethyl)-1,3-dihydro-isoindol-2-yl]-methanone sulphate salt], the “stability in a dry environment” value (20° C., 11% RH) is listed as “transformation of form FS4 in a dry environment”. For the same compound, the “stability of the crystalline form (stable / unstable form)” value (listed as FS4, sulphate salt) was “stable form”.
